From article PMC3563359 (Nature communications, 2012)

Columns and labels:
[1] = target: SK2-a channels (Rattus norvegicus, UniProt P0DP29+P70604); assay: Potentiation of WT SK2-a channel currents, inside-out patch, TsA201 cells; assay type: cell-based
[2] = test system: EDHF-mediated responses; conditions: cited from earlier work
[3] = cited from earlier work
[4] = ratio of EC50s, SK2-a, 200 nM Ca2+

Chain of SK2-a channels (P70604 whole entry, one chain of several): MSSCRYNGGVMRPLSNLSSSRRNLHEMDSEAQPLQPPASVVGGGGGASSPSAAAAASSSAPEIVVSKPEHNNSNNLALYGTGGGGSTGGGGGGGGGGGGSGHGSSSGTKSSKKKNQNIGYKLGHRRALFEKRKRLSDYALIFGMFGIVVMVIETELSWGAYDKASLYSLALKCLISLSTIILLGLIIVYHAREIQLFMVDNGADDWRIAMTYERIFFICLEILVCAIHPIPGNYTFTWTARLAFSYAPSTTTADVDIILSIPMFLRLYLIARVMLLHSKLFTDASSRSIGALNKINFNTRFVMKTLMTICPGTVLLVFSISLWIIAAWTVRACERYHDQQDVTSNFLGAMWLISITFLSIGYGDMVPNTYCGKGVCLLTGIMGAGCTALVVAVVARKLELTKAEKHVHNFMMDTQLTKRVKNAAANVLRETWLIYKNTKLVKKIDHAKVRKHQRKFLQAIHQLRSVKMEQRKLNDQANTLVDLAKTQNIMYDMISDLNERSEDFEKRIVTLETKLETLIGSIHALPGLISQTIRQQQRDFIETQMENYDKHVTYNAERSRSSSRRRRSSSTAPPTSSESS

Structure (SMILES) | EC50 [1] [µM] | Hill coefficient of potentiation of SK2-a channel activity ([1]; 200 nM Ca2+, inside-out patch) | fold less potent compared to NS309 [1, 4] | fold less potent than DCEBIO [1, 4] [fold] | effect on EDHF-mediated responses [2] | effect on blood pressure [3]
NC(=O)Nc1ccccc1 [PHU, phenylurea] | 1610 ± 200 | 1.81 ± 0.22 | more than 3600 fold | ~75 |  | 
Nc1nc2c(ccc3ccccc32)s1 [SKA-31, Naphtho[1,2-d]thiazol-2-ylamine] |  |  |  |  | enhances | lowers the blood pressure
